Assay results from article PMC7307906, “Macrocyclic Modalities Combining Peptide Epitopes and Natural Product Fragments” (Journal of the American Chemical Society, 2020).

Biological target: hMC1−5R
Assay: Melanocortin receptor radioligand binding, result stated for all receptors together
Set-up: species or system human
From the text: Example concentration response curves for selected PepNats in MC1R, MC3R, MC4R, MC5R radioligand binding assays and MC1R, MC3R, MC4R cAMP assays. Responses were normalized to reference agonist NDP -α-MSH and presented as % effect of control, with full competition in binding defined as -100% and full agonism in cAMP assays defined as […]
binding assay. Threshold to define a compound as active was set to -30% in binding assays and 20% in cAMP assays respectively. Data are from at least three independent experiments and error bars represent ± Standard Error of the […]
% s p e c ific b in d in g o f
(1 picture or pasted object on this page, not shown here) […]
expression, MC1R and MC4R transfected cells were treated with 0.1 ng /mL and MC3R transfected cells with 10 ng/mL doxycyclin, for 24 h before assay.
Melanocortin receptor radioligand binding and cAMP assays.
Binding and cAMP assays were performed as described by Durek et al.7 “A 384-well format scintillation proximity assay (SPA) was used to identify compounds that show competitive binding to the human Melanocortin receptor 1,3,4 or 5 ligand binding domain (LBD). […] The inhibition of the scintillation signal by displacement of [ 125I]- NDP-α-MSH by test compounds were detected by a 1450 MicroBeta Trilux scintillation counter […]
Plates were incubated for 16-23 h in the dark at room temperature before reading on a 1450 […]
Measurements of cAMP production were performed using LANCE® cAMP kits (PerkinElmer) in a total assay volume of 12 µl/well. […] The reaction was stopped with detection buffer containing 10 µM Biotin-cAMP and 15 µM LANCE Eu-W8044 labelled streptavidin (PerkinElmer LANCE cAMP kit). cAMP production was detected by homogenous time resolved fluorescence (HTRF) (λex = 340 nm, λem = 665 and 615 nm) using a Pherastar (BMG Labtech).
PepNats, literature compounds and references were tested in ten-point concentration response (½ log serial dilution) with 100, 10 or 1 µM as final start concentrations. Raw data output was analyzed in Screener software (Genedata AG) and pEC50 and pIC50 values calculated using a four-

CN1C(=O)[C@H]2N[C@@H](c3ccc(cc3)C(=O)NCCCC[C@@H](C(=O)N[C@@H](Cc3ccc(O)cc3)C(N)=O)NC(=O)[C@H](CC(N)=O)NC(=O)[C@@H](Cc3ccccc3)NC(=O)[C@@H](Cc3ccccc3)NC(=O)[C@H](CCCNC(=N)N)NC(=O)[C@@H]1Cc1ccccc1)[C@H]1C(=O)N(c3ccccc3)C(=O)[C@H]12 [K1-minor, [II-FRffNK ]Y]
IC50 (competitive binding, one bound printed for all receptors): > 100 µM
binding to the MC receptors (in words) (human MC receptors, radioligand binding): did not bind to any of the receptors
